Literature values, collected in publication doi:10.1101/2020.07.01.182659 (bioRxiv, 2020).

QRPRLSHKGPMP↓F [Apelin-13]
Km (ACE2): < 10 µM
kcat/Km (ACE2): > 1e+06 M⁻¹ s⁻¹
affinity to APJR (in words) (APJR): nanomolar affinity
decrease of potency after cleavage of C-terminal phenylalanine (APJR): 2–5 fold

YGGFLRRIRPKL↓K [Dynorphin A 1–13]
loss of potency on removal of C-terminal lysine (opioid receptors): 90%
ACE2 activity on peptide (in words) (ACE2): good ACE2 substrate
Km (ACE2): < 10 µM
kcat/Km (ACE2): > 1e+06 M⁻¹ s⁻¹

YPFVEP↓I [β–Casomorphin]
ACE2 activity on peptide (in words) (ACE2): good ACE2 substrate
